From patent US10004701B2, “Methods and compositions for treating infection” (UNIVERSITY OF ROCHESTER, priority 2012, dated 2018) come the findings set out here.

Structures are written as SMILES. Counter-ions that a name gives are not always drawn. Like-named read-outs stand apart in the source and are kept apart here.

Common to all, as to experiment: AK assay 384-well format, Prestwick library screening
One assay has as its system P. aeruginosa. It is filed as cell-based, Pseudomonas aeruginosa. Particulars: 50 μM final drug concentration; for fold induction at 50 µM: Pseudomonas aeruginosa, 3 h.
In a further assay the test system is K. pneumoniae. It is filed as cell-based, Klebsiella pneumoniae. As to conditions: 50 μM final drug concentration; for fold induction at 50 µM: Klebsiella pneumoniae, 3 h.
The test system of another assay is E. cloacae. Type of assay: cell-based, Enterobacter cloacae. Particulars: 50 μM final drug concentration; for fold induction at 50 µM: Enterobacter cloacae, 3 h.
The test system of assay [1] is S. aureus strain USA300-0114. Type of assay: cell-based, Staphylococcus aureus. As to conditions: 50 μM final drug concentration; for fold induction at 50 µM: Staphylococcus aureus, USA300, 3 h.
For a further assay, the system named is E. faecium. Type of assay: cell-based, Enterococcus faecium. Particulars: 50 μM final drug concentration; for fold induction at 50 µM: Enterococcus faecium, 3 h.
In assay [2] the test system is A. baumannii strain 98-37-09. It is filed as cell-based, Acinetobacter baumannii. As to conditions: 50 μM final drug concentration; for fold induction at 50 µM: Acinetobacter baumannii, 983709, 3 h.
A further assay deals with E. coli. It is filed as cell-based, Escherichia coli. As to conditions: 50 μM final drug concentration; for fold induction at 50 µM: Escherichia coli, 3 h.
[3] abbreviates: planktonic P. aeruginosa, positive cutoff 3-fold increase, read-out: AK-based Prestwick library screening result, P. aeruginosa (fold increase in extracellular AK activity).
The mark [4] stands for this setting: planktonic K. pneumoniae, positive cutoff 3-fold increase, read-out: AK-based Prestwick library screening result, K. pneumoniae (fold increase in extracellular AK activity).
Where [5] appears, read: planktonic E. cloacae, positive cutoff 3-fold increase, read-out: AK-based Prestwick library screening result, E. cloacae (fold increase in extracellular AK activity).
Where [6] appears, read: planktonic S. aureus, positive cutoff 3-fold increase, read-out: AK-based Prestwick library screening result, S. aureus (fold increase in extracellular AK activity).
[7] abbreviates: planktonic E. faecium, positive cutoff 3-fold increase, read-out: AK-based Prestwick library screening result, E. faecium (fold increase in extracellular AK activity).
Where [8] appears, read: planktonic A. baumannii, positive cutoff 3-fold increase, read-out: AK-based Prestwick library screening result, A. baumannii (fold increase in extracellular AK activity).
[9] abbreviates: planktonic E. coli, positive cutoff 3-fold increase, read-out: AK-based Prestwick library screening result, E. coli (fold increase in extracellular AK activity).
[10] abbreviates: 384-well format, cutoff for positive-scoring molecules 3-fold increase, read-out: AK-based Prestwick Library Screening Results, P. aeruginosa (increase in extracellular AK activity).
Where [11] appears, read: 384-well format, cutoff for positive-scoring molecules 3-fold increase, read-out: AK-based Prestwick Library Screening Results, K. pneumoniae (increase in extracellular AK activity).
The mark [12] stands for this setting: 384-well format, cutoff for positive-scoring molecules 3-fold increase, read-out: AK-based Prestwick Library Screening Results, E. cloacae (increase in extracellular AK activity).
The mark [13] stands for this setting: 384-well format, cutoff for positive-scoring molecules 3-fold increase, read-out: AK-based Prestwick Library Screening Results, S. aureus (increase in extracellular AK activity).
[14] abbreviates: 384-well format, cutoff for positive-scoring molecules 3-fold increase, read-out: AK-based Prestwick Library Screening Results, E. faecium (increase in extracellular AK activity).
The mark [15] stands for this setting: 384-well format, cutoff for positive-scoring molecules 3-fold increase, read-out: AK-based Prestwick Library Screening Results, A. baumannii (increase in extracellular AK activity).
The mark [16] stands for this setting: 384-well format, cutoff for positive-scoring molecules 3-fold increase, read-out: AK-based Prestwick Library Screening Results, E. coli (increase in extracellular AK activity).

As to `C[C@@H]1C[C@@H]([C@H](O)CC2CC(=O)NC(=O)C2)C(=O)[C@@H](C)C1` [Cycloheximide], the fold induction at 50 µM in the assay with P. aeruginosa ([…], read-out: AK-based Prestwick Library Screening Results, P. aeruginosa (fold increase in extracellular AK activity)) turned out to be 1.1; in the assay on K. pneumoniae ([…], read-out: AK-based Prestwick Library Screening Results, K. pneumoniae (fold increase in extracellular AK activity)), 1; with E. cloacae ([…], read-out: AK-based Prestwick Library Screening Results, E. cloacae (fold increase in extracellular AK activity)), 0.9; in assay [1] ([…], read-out: AK-based Prestwick Library Screening Results, S. aureus (fold increase in extracellular AK activity)), 1.1; with E. faecium ([…], read-out: AK-based Prestwick Library Screening Results, E. faecium (fold increase in extracellular AK activity)), 1; in assay [2] ([…], read-out: AK-based Prestwick Library Screening Results, A. baumannii (fold increase in extracellular AK activity)), 1.2. In addition, in the assay with E. coli ([…], read-out: AK-based Prestwick Library Screening Results, E. coli (fold increase in extracellular AK activity)), the fold induction at 50 µM came out at 1.3.

As for `NS(=O)(=O)c1cc2c(cc1Cl)NC(CC1CCCC1)NS2(=O)=O` (stereo not drawn) [Cyclopenthiazide], the fold induction at 50 µM in the assay on P. aeruginosa (setting [3]) was found to be 0.8; in the assay with K. pneumoniae (setting [4]), 0.8; with E. cloacae (setting [5]), 1.2; in assay [1] (setting [6]), 0.7; in the assay with E. faecium (setting [7]), 0.9; in assay [2] (setting [8]), 0.8. Moreover, in the assay with E. coli (setting [9]), the fold induction at 50 µM was 0.8.

Consider `CN(C)CCOC(=O)C(c1ccccc1)C1(O)CCCC1` (stereo not drawn) [Cyclopentolate hydrochloride], for which the fold induction at 50 µM turned out to be 1.1 with P. aeruginosa (setting [3]); 1 with K. pneumoniae (setting [4]); 1.3 in the assay with E. cloacae (setting [5]); 1.1 in assay [1] (setting [6]); 1 in the assay on E. faecium (setting [7]); 1 in assay [2] (setting [8]). Besides, the fold induction at 50 µM with E. coli (setting [9]) turned out to be 1.2.

In the case of `CN1CCC(=C2c3ccccc3C=Cc3ccccc32)CC1` [Cyproheptadine hydrochloride], the fold induction at 50 µM was 0.9 with P. aeruginosa (setting [10]); 0.6 in the assay with K. pneumoniae (setting [11]); 0.9 in the assay on E. cloacae (setting [12]); 0.6 in assay [1] (setting [13]); 0.9 with E. faecium (setting [14]); 0.9 in assay [2] (setting [15]). Also, the fold induction at 50 µM with E. coli (setting [16]) was 0.9.

For the compound `CC(=O)O[C@]1(C(C)=O)CC[C@H]2[C@@H]3C=C(Cl)C4=CC(=O)[C@@H]5C[C@@H]5[C@]4(C)[C@H]3CC[C@@]21C` [Cyproterone acetate], the fold induction at 50 µM with P. aeruginosa (setting [3]) was found to be 0.8; in the assay with K. pneumoniae (setting [4]) it was 0.7; in the assay with E. cloacae (setting [5]), 1.4; in assay [1] (setting [6]) it was 0.6; in the assay with E. faecium (setting [7]), 1; in assay [2] (setting [8]), 0.8. Moreover, the fold induction at 50 µM with E. coli (setting [9]) is 0.8.

`N[C@@H]1CONC1=O` [D-cycloserine]: in the assay on P. aeruginosa (planktonic P. aeruginosa, positive cutoff 3-fold increase), the “AK-based Prestwick library screening result, P. aeruginosa (fold increase in extracellular AK activity)” value is 1.2. Also, the “AK-based Prestwick library screening result, K. pneumoniae (fold increase in extracellular AK activity)” value with K. pneumoniae (planktonic K. pneumoniae, positive cutoff 3-fold increase) worked out at 1.1. Further, the “AK-based Prestwick library screening result, E. cloacae (fold increase in extracellular AK activity)” value in the assay on E. cloacae (planktonic E. cloacae, positive cutoff 3-fold increase) came to 1.2. In addition, the “AK-based Prestwick library screening result, S. aureus (fold increase in extracellular AK activity)” value in assay [1] (planktonic S. aureus, positive cutoff 3-fold increase) is 1.4. In the assay on E. faecium (planktonic E. faecium, positive cutoff 3-fold increase), the “AK-based Prestwick library screening result, E. faecium (fold increase in extracellular AK activity)” value came out at 1.2. The “AK-based Prestwick library screening result, A. baumannii (fold increase in extracellular AK activity)” value in assay [2] (planktonic A. baumannii, positive cutoff 3-fold increase) turned out to be 1.0. Besides, the “AK-based Prestwick library screening result, E. coli (fold increase in extracellular AK activity)” value with E. coli (planktonic E. coli, positive cutoff 3-fold increase) was 1.4.

For `COc1ccccc1N1CCN(CCCCNC(=O)c2ccc3ccccc3c2)CC1` [DO 897/99], the “AK-based Prestwick Library Screening Results, P. aeruginosa (fold increase in extracellular AK activity)” value in the assay with P. aeruginosa (planktonic, […]) amounted to 1.3. For the same compound, the “AK-based Prestwick Library Screening Results, K. pneumoniae (fold increase in extracellular AK activity)” value with K. pneumoniae (planktonic, […]) is on record as 1.3. Also, the “AK-based Prestwick Library Screening Results, E. cloacae (fold increase in extracellular AK activity)” value in the assay with E. cloacae (planktonic, […]) is given as 1.7. Besides, the “AK-based Prestwick Library Screening Results, S. aureus (fold increase in extracellular AK activity)” value in assay [1] (planktonic, […]) is reported as 1.1. For the same compound, the “AK-based Prestwick Library Screening Results, E. faecium (fold increase in extracellular AK activity)” value in the assay on E. faecium (planktonic, […]) is recorded as 1.0. Also, in assay [2] (planktonic, […]), the “AK-based Prestwick Library Screening Results, A. baumannii (fold increase in extracellular AK activity)” value was found to be 1.2. Moreover, the “AK-based Prestwick Library Screening Results, E. coli (fold increase in extracellular AK activity)” value in the assay on E. coli (planktonic, […]) was 1.4.

For `CN(C)/N=N/c1[nH]cnc1C(N)=O` [Dacarbazine], the fold induction at 50 µM was 0.9 in the assay on P. aeruginosa (planktonic P. aeruginosa, cutoff for positive-scoring molecules 3-fold increase, read-out: AK-based Prestwick Library Screening Results, P. aeruginosa (increase in extracellular AK activity)); 3.8 in the assay with K. pneumoniae (planktonic K. pneumoniae, cutoff for positive-scoring molecules 3-fold increase, read-out: AK-based Prestwick Library Screening Results, K. pneumoniae (increase in extracellular AK activity)); 0.8 in the assay with E. cloacae (planktonic E. cloacae, cutoff for positive-scoring molecules 3-fold increase, read-out: AK-based Prestwick Library Screening Results, E. cloacae (increase in extracellular AK activity)); 0.7 in assay [1] (planktonic S. aureus, cutoff for positive-scoring molecules 3-fold increase, read-out: AK-based Prestwick Library Screening Results, S. aureus (increase in extracellular AK activity)); 1.1 in the assay on E. faecium (planktonic E. faecium, cutoff for positive-scoring molecules 3-fold increase, read-out: AK-based Prestwick Library Screening Results, E. faecium (increase in extracellular AK activity)); 1.6 in assay [2] (planktonic A. baumannii, cutoff for positive-scoring molecules 3-fold increase, read-out: AK-based Prestwick Library Screening Results, A. baumannii (increase in extracellular AK activity)). For the same compound, the fold induction at 50 µM with E. coli (planktonic E. coli, cutoff for positive-scoring molecules 3-fold increase, read-out: AK-based Prestwick Library Screening Results, E. coli (increase in extracellular AK activity)) was 2.

For `C#C[C@]1(O)CC[C@H]2[C@@H]3CCC4=Cc5oncc5C[C@]4(C)[C@H]3CC[C@@]21C` [Danazol], the fold induction at 50 µM in the assay with P. aeruginosa (setting [10]) came to 0.8; in the assay on K. pneumoniae (setting [11]), 0.6; with E. cloacae (setting [12]) it was 0.9; in assay [1] (setting [13]), 0.6; with E. faecium (setting [14]) it was 0.9; in assay [2] (setting [15]), 0.9. Moreover, the fold induction at 50 µM in the assay on E. coli (setting [16]) is 0.7.
